In patent US9988430B2, “Stable GLP-1 based GLP-1/glucagon receptor co-agonists” (Novo Nordisk A/S, priority 2014, dated 2018):
*1 amine or outer side, *2 acyl side, *3 side chain or, on linkers, in order; H or OH if unused. Where a SMILES comes first, the peptide text is derived from it. Side-chain parts run from the residue outwards. [ ]: non-standard residue; d: D form. The star is where a group is joined. C18 diacid = O=C(O)CCCCCCCCCCCCCCCCC(=O)*; γGlu = O=C(O)[C@H](CCC(=O)[*:2])N[*:1]; Desaminohistidyl = O=C(CCc1c[nH]cn1)*; AEEA = NCCOCCOCC(=O)O; Aib = CC(C)(N)C(=O)O

Molecular target: T1, human GLP-1 receptor (Homo sapiens, UniProt P43220)
T1 construct: expressed in transfected cells; host or cells: membranes of BHK cells, parent line BHKTS13, clone FCW467-12A
T1 sequence (P43220 24-463): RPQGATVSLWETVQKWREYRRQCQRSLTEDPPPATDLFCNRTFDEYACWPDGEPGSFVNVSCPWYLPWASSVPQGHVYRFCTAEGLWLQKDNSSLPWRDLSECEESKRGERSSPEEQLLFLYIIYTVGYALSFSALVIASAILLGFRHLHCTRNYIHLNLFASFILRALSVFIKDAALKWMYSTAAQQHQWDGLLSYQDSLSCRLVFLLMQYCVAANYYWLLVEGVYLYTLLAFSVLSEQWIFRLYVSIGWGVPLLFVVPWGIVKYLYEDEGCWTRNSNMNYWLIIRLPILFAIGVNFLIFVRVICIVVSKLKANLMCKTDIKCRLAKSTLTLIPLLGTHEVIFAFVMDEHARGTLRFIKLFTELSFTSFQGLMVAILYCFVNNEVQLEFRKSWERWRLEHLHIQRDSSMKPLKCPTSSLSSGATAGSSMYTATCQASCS
Assay: Assay (I)(a): GLP-1 receptor potency, CRE luciferase reporter gene assay in BHK cells
Type: cell-based
Conditions: BHK cells expressing human GLP-1 receptor, read-out: EC50 GLP-1R
Protocol: Assay (I): GLP-1 and Glucagon Receptor Potency The purpose of this example was to test the activity or potency, of the GLP-1 derivatives of the invention, in vitro. The in vitro potency is the measure of human GLP-1 receptor (GLP-1R) or glucagon receptor (glucagonR) activation, respectively, in a whole cell assay. In vitro potency was determined by measuring the cellular response of human GLP-1 or glucagon receptor activation, respectively, in a reporter gene assay. The assay was performed in a BHK cell line that stably expresses either the human GLP-1 receptor or the human glucagon receptor and comprises the DNA for the cAMP response element (CRE) coupled to a promoter and the gene for firefly luciferase (CRE luciferase). […] When assay incubation was completed, the luciferase substrate (luciferin) was added and the enzyme converted luciferin to oxyluciferin and produces bioluminescence. The luminescence was measured as the readout for the assay. (a) GLP-1 Receptor Activation The cells used in this assay (clone FCW467-12A/KZ10-1) were BHK cells with BHKTS13 as a parent cell line. The cells were derived from a clone (FCW467-12A) that expresses the human GLP-1 receptor and were established by further transfection with CRE luciferase to obtain the current clone. The cells were cultured at 5% CO2 in DMEM medium with 10% FBS, 1×GlutaMAX, 1 mg/ml G418, 240 nM MTX (methotrexate) and 1% pen/strep (penicillin/streptomycin). They were aliquoted and stored in liquid nitrogen. Before each assay, an aliquot was taken up and washed three times in PBS before being suspended at the desired concentration in assay medium. For 96-well plates the suspension was made to give a final concentration of 5×10EE3 cells/well. The following chemicals were used in the assay: Pluronic F-68 (10%) (Gibco 2404), Ovalbumin (Sigma A5503), DMEM w/o phenol red (Gibco 11880-028), 1 M Hepes (Gibco 15630), Glutamax 100× (Gibco 35050) and steadylite plus (PerkinElmer 6016757). Assay Medium consisted of DMEM w/o phenol red, 10 mM Hepes, 1×GlutaMAX, 2% Ovalbumin and 0.2% Pluronic F-68. Cell stocks were thawed in a 37° C. water bath. Cells were washed three times in PBS. The cells were counted and adjusted to 5×10EE3 cells/50 μl (1×10EE5 cells/ml) in Assay Medium. A 50 μl aliquot of cells was transferred to each well in the assay plate. Stocks of the test compounds and reference compounds were diluted to a concentration of […] in Assay Medium. Compounds were diluted 10-fold to give the following concentrations: 2×10EE-6 M, 2×10EE-7 M, 2×10EE-8 M; 2×10EE-9 M, 2×10EE-10 M, 2×10EE-11 M, 2×10EE-12 M and 2×10EE-13 M. For each compound a blank assay medium control was also included. A 50 μl aliquot of compound or blank was transferred from the dilution plate to the assay plate. Compounds were tested at the following final concentrations: 1×10EE-6 M, 1×10EE-7 M, 1×10EE-8 M; 1×10EE-9 M, 1×10EE-10 M, 1×10EE-11 M and 1×10EE-12 M and 1×10EE-13 M. The assay plate was incubated for 3 h in a 5% CO2 incubator at 37° C. The assay plate was removed from the incubator and allowed to stand at room temperature for 15 min. A 100 μl aliquot of steadylite plus reagent was added to each well of the assay plate (reagent is light sensitive). Each assay plate was covered with aluminum foil to protect it from light and shaken for 30 min at room temperature. Each assay plate was read in a Perkin Elmer TopCount NXT instrument. The data from the TopCount instrument was transferred to GraphPad Prism software. The software performed a non-linear regression (log(agonist) vs response-Variable slope (four parameter)). EC50 values were calculated by the software and reported in pM.

EC50	SMILES
8 pM	CC[C@H](C)[C@H](NC(=O)[C@H](Cc1ccccc1)NC(=O)[C@H](CCCCNC(=O)COCCOCCNC(=O)COCCOCCNC(=O)CC[C@H](NC(=O)CC[C@H](NC(=O)CC[C@H](NC(=O)CCCCCCCCCCCCCCCCC(=O)O)C(=O)O)C(=O)O)C(=O)O)NC(=O)[C@H](CCCNC(=N)N)NC(=O)[C@H](C)NC(=O)[C@H](C)NC(=O)[C@H](CCC(N)=O)NC(=O)[C@H](CCC(=O)O)NC(=O)[C@H](CCC(=O)O)NC(=O)[C@H](CC(C)C)NC(=O)[C@H](Cc1ccc(O)cc1)NC(=O)[C@H](CCCNC(=N)N)NC(=O)[C@H](CO)NC(=O)[C@@H](NC(=O)[C@H](CC(=O)O)NC(=O)[C@H](CO)NC(=O)[C@@H](NC(=O)[C@H](Cc1ccccc1)NC(=O)[C@@H](NC(=O)CNC(=O)[C@H](Cc1c[nH]cn1)NC(=O)[C@H](C)NC(=O)CCc1c[nH]cn1)[C@@H](C)O)[C@@H](C)O)C(C)C)C(=O)N[C@@H](C)C(=O)N[C@@H](Cc1c[nH]c2ccccc12)C(=O)N[C@@H](CC(C)C)C(=O)N[C@@H](CC(C)C)C(=O)N[C@@H](CCCNC(=N)N)C(=O)O [Example 18, N^ε27-[2-[2-[2-[[2-[2-[2-[[(4S)-4-carboxy-4-[[(4S)-4-carboxy-4-[[(4S)-4-carboxy-4-(17-carboxyheptadecanoylamino)butanoyl]amino]butanoyl]amino]butanoyl]amino]ethoxy]ethoxy]acetyl]amino]ethoxy]ethoxy]acetyl]-[Imp7,His9,Arg18,Glu22,Arg26,Lys27,Leu33,Arg34]-GLP-1-(7-34)-peptide] (Desaminohistidyl-AHGTFTSDVSRYLEEQAARK([AEEA-AEEA-γGlu-γGlu-γGlu-C18 diacid])FIAWLLR-OH)
6 pM	CC[C@H](C)[C@H](NC(=O)[C@H](Cc1ccccc1)NC(=O)[C@H](CCC(=O)O)NC(=O)[C@H](CCCNC(=N)N)NC(=O)[C@H](C)NC(=O)[C@H](C)NC(=O)[C@H](CCCNC(=N)N)NC(=O)CNC(=O)[C@H](CCC(=O)O)NC(=O)[C@H](CC(C)C)NC(=O)[C@H](Cc1ccc(O)cc1)NC(=O)[C@H](CCCNC(=N)N)NC(=O)[C@H](CO)NC(=O)[C@@H](NC(=O)[C@H](CC(=O)O)NC(=O)[C@H](CO)NC(=O)[C@@H](NC(=O)[C@H](Cc1ccccc1)NC(=O)[C@@H](NC(=O)CNC(=O)[C@H](Cc1c[nH]cn1)NC(=O)C(C)(C)NC(=O)CCc1c[nH]cn1)[C@@H](C)O)[C@@H](C)O)C(C)C)C(=O)N[C@@H](C)C(=O)N[C@@H](Cc1c[nH]c2ccccc12)C(=O)N[C@@H](CC(C)C)C(=O)N[C@@H](CC(C)C)C(=O)N[C@@H](CCCCNC(=O)CC[C@H](NC(=O)CC[C@H](NC(=O)COCCOCCNC(=O)CC[C@H](NC(=O)CC[C@H](NC(=O)CCCCCCCCCCCCCCCCC(=O)O)C(=O)O)C(=O)O)C(=O)O)C(=O)O)C(=O)NCC(=O)N[C@@H](CO)C(=O)NCC(=O)O [Example 36, N^ε34-[(4S)-4-carboxy-4-[[(4S)-4-carboxy-4-[[2-[2-[2-[[(4S)-4-carboxy-4-[[(4S)-4-carboxy-4-(17-carboxyheptadecanoylamino)butanoyl]amino]butanoyl]amino]ethoxy]ethoxy]acetyl]amino]butanoyl]amino]butanoyl]-[Imp7,Aib8,His9,Arg18,Arg23,Arg26,Leu33,Ser36]-GLP-1-(7-37)-peptide] (Desaminohistidyl-[Aib]HGTFTSDVSRYLEGRAAREFIAWLLK([γGlu-γGlu-AEEA-γGlu-γGlu-C18 diacid])GSG-OH)
3 pM	CC[C@H](C)[C@H](NC(=O)[C@H](Cc1ccccc1)NC(=O)[C@H](CCC(=O)O)NC(=O)[C@H](CCCNC(=N)N)NC(=O)[C@H](C)NC(=O)[C@H](C)NC(=O)[C@H](CCC(N)=O)NC(=O)[C@H](C)NC(=O)[C@H](CCC(=O)O)NC(=O)[C@H](CC(C)C)NC(=O)[C@H](Cc1ccc(O)cc1)NC(=O)[C@H](CCCCN)NC(=O)[C@H](CO)NC(=O)[C@@H](NC(=O)[C@H](CC(=O)O)NC(=O)[C@H](CO)NC(=O)[C@@H](NC(=O)[C@H](Cc1ccccc1)NC(=O)[C@@H](NC(=O)CNC(=O)[C@H](Cc1c[nH]cn1)NC(=O)C(C)(C)NC(=O)CCc1c[nH]cn1)[C@@H](C)O)[C@@H](C)O)C(C)C)C(=O)N[C@@H](C)C(=O)N[C@@H](Cc1c[nH]c2ccccc12)C(=O)N[C@@H](CC(C)C)C(=O)N[C@@H](CC(C)C)C(=O)N[C@@H](CCCCNC(=O)CC[C@H](NC(=O)CC[C@H](NC(=O)COCCOCCNC(=O)CC[C@H](NC(=O)CC[C@H](NC(=O)CCCCCCCCCCCCCCCCC(=O)O)C(=O)O)C(=O)O)C(=O)O)C(=O)O)C(=O)N[C@H](C(N)=O)[C@@H](C)O [Example 34, N^ε34-[(4S)-4-carboxy-4-[[(4S)-4-carboxy-4-[[2-[2-[2-[[(4S)-4-carboxy-4-[[(4S)-4-carboxy-4-(17-carboxyheptadecanoylamino)butanoyl]amino]butanoyl]amino]ethoxy]ethoxy]acetyl]amino]butanoyl]amino]butanoyl]-[Imp7,Aib8,His9,Lys18,Ala22,Arg26,Leu33,Thr35]-GLP-1-(7-35)-peptide amide] (Desaminohistidyl-[Aib]HGTFTSDVSKYLEAQAAREFIAWLLK([γGlu-γGlu-AEEA-γGlu-γGlu-C18 diacid])T-NH2)
